Data from US20240390503A1, “Green Tea-based Nanocomplexes for Eye Disease” (Agency for Science, Technology and Research, priority 2021, published 2024).
“Also recorded” adds a separate entry of the source. Like-named read-outs stand apart in the source and are kept apart here.

Assays:
[1] = tested on: AMD patients; conditions: cited from earlier work
[2] = tested on: Vldlr^−/− mice; test: In vivo anti-angiogenesis effect on Vldlr−/− mice (relative number of retinal lesions, fluorescein angiography)
[3] = tested on: Human umbilical vein endothelial cells (HUVECs); test: Inhibitory effects on VEGF-activated endothelial cell proliferation (AlamarBlue); assay type: cell-based; conditions: HUVEC, 3 days, read-out: IC50, anti-proliferative effect
Description: Human umbilical vein endothelial cells (HUVECs) were obtained from Lonza Biologics Tuas Pte Ltd (Singapore), and cultured in the endothelial cell basal medium (EBM-2) supplemented with EGM-2 SingleQuots (Lonza Biologics Tuas Pte Ltd, Singapore). HUVECs were seeded in 96-well plates (5×10^3 cells/well, n=5) and cultured for one day for cell attachment.
After 3 days, the cell viability was measured by using AlamarBlue® reagent (Life Technologies, USA) according to the manufacturer's protocol. Briefly, the medium was replaced by phenol red-free media containing 10% AlamarBlue® reagent. After incubation for 4 hours at 37° C., fluorescence intensity (λex=549 nm and λem=587 nm) was measured by a microplate reader (Tecan Group Ltd., Switzerland). Results were expressed as a percentage of viable cells relative to untreated cells.
The CI values of HA-EGCG and drug combination were calculated with the following equation using the CompuSyn software: […]

[4] = tested on: AMD patients; conditions: oral, cited from earlier work

## Ranibizumab
[1]; monthly IVT injection, 0.5 mg
  AMD patients with improved visual acuity: 33.8%
[1]; two year treatment
  incidence of increased intraocular pressure: 24%
  incidence of intraocular inflammation: 18%

## Aflibercept
[2]; IVT, 2.0 μg/0.5 μL, 1× at day 0
  CNV inhibitory effect: observed only in the early stages of treatment and diminished over time; also recorded: effective only in the first 7 days
[2]; topical, AF 0.2 mg/mL or equivalent HA-EGCG/chitosan, 10 μL, 3×/day, 31 days
  retinal lesion development: failed to suppress the lesion progression
[3]; VEGF-activated conditions
  IC50: > 0.21 µM

## CCN(CC)CCNC(=O)c1c(C)[nH]c(/C=C2\C(=O)Nc3ccc(F)cc32)c1C [SU, Sunitinib malate]
[2]; topical, SU 0.50 mg/mL, 10 μL, 3×/day, 28 days
  progression of retinal lesions: no efficacy
[3]; Homo sapiens, 72 h, VEGF-activated conditions
  IC50: 4.32 µM
[3]; Homo sapiens, 72 h, normal growth conditions
  IC50: 6.59 µM

## Cc1[nH]c(/C=C2\C(=O)Nc3ccc(F)cc32)c(C)c1C(=O)N[C@H]1CCN(C(=O)N(C)C)C1 [Vorolanib]
[4]; phase 1, completed 24 weeks treatment
  AMD patients with improved visual acuity: 24 out of 25
[4]; phase 1
  participants who discontinued due to severe systemic adverse effects: 17%
[4]; phase 2, at 52 weeks
  visual acuity compared to placebo: did not improve visual acuity
